Source: PubChem BioAssay AID248 (DTP/NCI, 2004)
Where “and” joins values, the source holds several entries; their conditions need not be identical. Identical values can stand only once. Toxic doses and inconclusive results are not listed. No stated cut-off is given here; in the data, active means T/C of 150% or more; inactive means T/C below 125%.

Test system: L1210 leukemia ip in BDF1 mice, survival T/C
Experiment: NCI In Vivo Anticancer Drug Screen. Data for tumor model L1210 Leukemia (intraperitoneal) in B6D2F1 (BDF1) mice
Conditions: endpoint: mean survival time, higher = longer survival
Summary of the method: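 Transplantable tumor model; survival measured in treated vs vehicle control mice. Value = treated/control.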

[1] = dose: 100.0 mg/kg/injection, schedule: Q01DX009 (ip), vehicle: saline
[2] = dose: 100.0 mg/kg/injection, schedule: Q04DX003 (ip), vehicle: saline
[3] = dose: 200.0 mg/kg/injection, schedule: Q01DX009 (ip), vehicle: saline
[4] = dose: 200.0 mg/kg/injection, schedule: Q04DX003 (ip), vehicle: saline
[5] = dose: 400.0 mg/kg/injection, schedule: Q01DX009 (ip), vehicle: saline
[6] = dose: 400.0 mg/kg/injection, schedule: Q04DX003 (ip), vehicle: saline
[7] = dose: 75.0 mg/kg/injection, schedule: Q01DX001 (ip), vehicle: saline
[8] = dose: 25.0 mg/kg/injection, schedule: Q04DX003 (ip), vehicle: saline
[9] = dose: 50.0 mg/kg/injection, schedule: Q04DX003 (ip), vehicle: saline
[10] = dose: 200.0 mg/kg/injection, schedule: Q04DX002 (ip), vehicle: saline with Tween-80
[11] = dose: 400.0 mg/kg/injection, schedule: Q04DX002 (ip), vehicle: saline with Tween-80
[12] = dose: 100.0 mg/kg/injection, schedule: Q04DX003 (ip), vehicle: saline with Tween-80
[13] = dose: 200.0 mg/kg/injection, schedule: Q04DX003 (ip), vehicle: saline with Tween-80
[14] = dose: 100.0 mg/kg/injection, schedule: Q04DX002 (ip), vehicle: saline
[15] = dose: 200.0 mg/kg/injection, schedule: Q04DX002 (ip), vehicle: saline
[16] = dose: 12.5 mg/kg/injection, schedule: Q04DX003 (ip), vehicle: saline
[17] = dose: 100.0 mg/kg/injection, schedule: Q01DX009 (ip), vehicle: saline with Tween-80
[18] = dose: 400.0 mg/kg/injection, schedule: Q04DX003 (ip), vehicle: saline with Tween-80

Measured: T/C

c1ccc(CC(Cc2ccccc2)=[N+]2CCCC2)cc1
inactive: [1] 91 % of control | [2] 104 % of control | [3] 92 % of control | [4] 98 % of control | [5] 101 % of control | [6] 105 % of control

CSc1cc2c(cc1NC(C)=O)Cc1ccccc1-2
inactive: dose: 100.0 mg/kg/injection, schedule: Q01DX001 (ip), vehicle: carboxymethylcellulose (CMC) 93 % of control | dose: 200.0 mg/kg/injection, schedule: Q01DX001 (ip), vehicle: carboxymethylcellulose (CMC) 95 % of control | dose: 400.0 mg/kg/injection, schedule: Q01DX001 (ip), vehicle: carboxymethylcellulose (CMC) 95 % of control

CCOC(=O)C1=Cc2ccccc2OC1
inactive: [7] 94 % of control | dose: 150.0 mg/kg/injection, schedule: Q01DX001 (ip), vehicle: saline 96 % of control | dose: 300.0 mg/kg/injection, schedule: Q01DX001 (ip), vehicle: saline 91 % of control

CN(C)CCCN1c2ccccc2Sc2ccccc21
inactive: dose: 4.6 mg/kg/injection, schedule: Q01DX009 (ip), vehicle: saline 98 % of control | dose: 9.3 mg/kg/injection, schedule: Q01DX009 (ip), vehicle: saline 105 % of control | dose: 9.37 mg/kg/injection, schedule: Q01DX009 (ip), vehicle: saline 96 % of control | dose: 18.0 mg/kg/injection, schedule: Q01DX001 (ip), vehicle: saline 107 % of control | dose: 18.0 mg/kg/injection, schedule: Q01DX009 (ip), vehicle: saline 112 % of control | dose: 18.0 mg/kg/injection, schedule: Q04DX003 (ip), vehicle: saline 116 % of control | dose: 18.75 mg/kg/injection, schedule: Q01DX009 (ip), vehicle: saline 104 % of control and 108 % of control | dose: 18.75 mg/kg/injection, schedule: Q04DX003 (ip), vehicle: saline 115 % of control | dose: 37.0 mg/kg/injection, schedule: Q01DX001 (ip), vehicle: saline 110 % of control | dose: 37.0 mg/kg/injection, schedule: Q01DX009 (ip), vehicle: saline 112 % of control | dose: 37.0 mg/kg/injection, schedule: Q04DX003 (ip), vehicle: saline 115 % of control | dose: 37.5 mg/kg/injection, schedule: Q01DX009 (ip), vehicle: saline 98 % of control and 122 % of control | dose: 37.5 mg/kg/injection, schedule: Q04DX003 (ip), vehicle: saline 102 % of control | [7] 105 % of control | dose: 75.0 mg/kg/injection, schedule: Q01DX009 (ip), vehicle: saline 122 % of control | dose: 75.0 mg/kg/injection, schedule: Q04DX003 (ip), vehicle: saline 102 % of control and 116 % of control

N#CC(Cl)(Cl)CCl
inactive: dose: 12.0 mg/kg/injection, schedule: Q04DX003 (ip), vehicle: saline 105 % of control | [8] 96 % of control | [9] 96 % of control | [2] 103 % of control and 105 % of control

OC1CCCN(Cc2ccccc2)C1 (stereo unspecified)
inactive: dose: 100.0 mg/kg/injection, schedule: Q01DX001 (ip), vehicle: saline 107 % of control | dose: 200.0 mg/kg/injection, schedule: Q01DX001 (ip), vehicle: saline 96 % of control

COc1ccccc1[P+](CO)(c1ccccc1OC)c1ccccc1OC
inactive: [1] 97 % of control | [2] 103 % of control | [3] 92 % of control | [4] 97 % of control | [5] 93 % of control | [6] 97 % of control

CCCCNC(=S)SCCC(=O)O
inactive: dose: 100.0 mg/kg/injection, schedule: Q04DX002 (ip), vehicle: saline with Tween-80 100 % of control | [10] 104 % of control | [11] 102 % of control

CN(C)c1nc(=[N+](C)C)ss1
inactive: dose: 15.0 mg/kg/injection, schedule: Q01DX015 (ip), vehicle: saline 102 % of control | dose: 30.0 mg/kg/injection, schedule: Q01DX015 (ip), vehicle: saline 94 % of control | dose: 60.0 mg/kg/injection, schedule: Q01DX015 (ip), vehicle: saline 100 % of control | [12] 100 % of control | dose: 120.0 mg/kg/injection, schedule: Q01DX015 (ip), vehicle: saline 105 % of control | [13] 96 % of control

O=C(O)c1c(F)ccc([N+](=O)[O-])c1F
inactive: [14] 108 % of control | [15] 103 % of control

OC(c1ccccc1)(c1ccccc1)C1C(Cc2ccccc2)C1Cc1ccccc1 (stereo unspecified)
inactive: dose: 100.0 mg/kg/injection, schedule: Q01DX001 (ip), vehicle: steriod suspending solution 110 % of control | dose: 200.0 mg/kg/injection, schedule: Q01DX001 (ip), vehicle: steriod suspending solution 112 % of control | dose: 400.0 mg/kg/injection, schedule: Q01DX001 (ip), vehicle: steriod suspending solution 104 % of control

COc1ccc2c(c1)C1C=[S+]c3ccccc3C1N2 (stereo unspecified)
inactive: dose: 12.5 mg/kg/injection, schedule: Q01DX009 (ip), vehicle: saline 101 % of control | [16] 95 % of control | dose: 25.0 mg/kg/injection, schedule: Q01DX009 (ip), vehicle: saline 103 % of control | [8] 92 % of control | [9] 98 % of control

O=C1NC(=O)C(c2ccccn2)N1 (stereo unspecified)
inactive: [17] 91 % of control | dose: 200.0 mg/kg/injection, schedule: Q01DX009 (ip), vehicle: saline with Tween-80 91 % of control | dose: 400.0 mg/kg/injection, schedule: Q01DX009 (ip), vehicle: saline with Tween-80 94 % of control

CC(=O)N(CC#CCN(C(C)=O)c1ccccc1)c1ccccc1
inactive: dose: 100.0 mg/kg/injection, schedule: Q04DX002 (ip), vehicle: other 111 % of control | dose: 200.0 mg/kg/injection, schedule: Q04DX002 (ip), vehicle: other 105 % of control | dose: 400.0 mg/kg/injection, schedule: Q04DX002 (ip), vehicle: other 97 % of control

OC1CCC2C3CC=CC3C12 (stereo unspecified)
inactive: dose: 75.0 mg/kg/injection, schedule: Q01DX001 (ip), vehicle: other 93 % of control | dose: 150.0 mg/kg/injection, schedule: Q01DX001 (ip), vehicle: other 98 % of control | dose: 300.0 mg/kg/injection, schedule: Q01DX001 (ip), vehicle: other 106 % of control

C=C1C(=O)OC2C1C(O)C(OC(=O)/C(C)=C\C)C(C)=C1CC3OC3(C)C12 (stereo unspecified)
inactive: dose: 25.0 mg/kg/injection, schedule: Q01DX001 (ip), vehicle: saline with Tween-80 94 % of control | dose: 50.0 mg/kg/injection, schedule: Q01DX001 (ip), vehicle: saline with Tween-80 105 % of control

COc1cc(Br)c(CCC(N)=O)cc1OC
inactive: [12] 96 % of control | [13] 95 % of control | [18] 93 % of control

CCC(C)C(CN)(CCN(C)C)Cc1cccc2ccccc12 (stereo unspecified)
inactive: [16] 93 % of control | [8] 96 % of control | [9] 101 % of control

CCCNC(Cc1ccccc1)c1ccco1 (stereo unspecified)
inactive: dose: 50.0 mg/kg/injection, schedule: Q01DX009 (ip), vehicle: saline 104 % of control | [1] 110 % of control | [14] 97 % of control | [15] 93 % of control

CC/C=C(\C)CC(C)O (stereo unspecified)
inactive: [10] 90 % of control | [11] 90 % of control

C=CCNC(=O)Oc1cccc(NC(=O)/C=C/C)c1
inactive: [17] 88 % of control | [12] 97 % of control | [13] 95 % of control | [18] 92 % of control
